Data reported in paper PMC4546427, “Stereoselective Regulation of P-gp Activity by Clausenamide Enantiomers in Caco-2, KB/KBv and Brain Microvessel Endothelial Cells” (PLoS ONE, 2015).
Where “and” joins values, the source holds several entries; their conditions need not be identical. Equal values may be shown once.

What was measured:
[1] = parameters: method as in PMID 12923804; conditions: rats; oral administration; n = 6; cited from earlier work
[2] = parameters: method as in PMID 23684935; conditions: cited from earlier work
P-gp [3] = test: P-gp expression in KB cells: Western blots; assay type: cell-based, Human; conditions: 5 μmol/L, 24 h, normalized to GAPDH
Experimental: The sensitive, non-induced KB cells on 6-well plates were grown to 80%–90% confluence and incubated with the following agents for 24 h at 37°C and 5% CO2: vehicle, (−)CLA (1 or 5 μmol/L), (+)CLA (1 or 5 μmol/L), or verapamil (100 μmol/L). The cells were washed 3 times with ice-cold PBS (pH 7.4) and were lysed with 80 μL of lysis buffer described above. Lysates were frozen with liquid nitrogen, thawed in water at 37°C three times and centrifuged at 15,000 ×g for 10 min. The protein concentration of the supernatant was determined by Lowry’s method with bovine serum albumin as the standard. Proteins (48 μg) were separated by SDS-PAGE on a 10% separating gel and 4% stacking gel, and were transferred onto Immobilon-P membranes. The transferred proteins were treated with a blocking buffer (5% non-fat dried milk and 0.02% NP-40 in PBS) and then incubated with P-gp or GAPDH antibodies (at a 1:100 dilution) or HRP-conjugated secondary antibodies (1:1000 dilution) at 37°C for 1 h, respectively. The protein bands were visualized with enhanced chemiluminescence according to the manufacturer’s instructions. The density of the bands was quantified by scanning densitometry (LAS-3000 Imaging System, Fujifilm, Japan; and Kodak Digital Science 1D Analysis Software, Rochester, NY, USA) and was expressed as normalized values to GAPDH.

P-gp [4] = test: Rh123 accumulation in RBMECs; assay type: cell-based, rat; conditions: RBMEC; for Increase in Rh123 accumulation relative to verapamil alone: co-treatment CLA 5 μmol/L with verapamil 200 μmol/L; for Percentage of rhodamine 123 accumulation relative to vehicle treatment: positive = increase
Experimental: The experimental programs in this part were approved by the Animal Care and Welfare Committee in our institute. Animals were treated in accordance with national/international guidelines. Primary cultures of brain microvessel endothelial cells were prepared from Sprague—Dawley rats (10–12 days old; Beijing Vital River Company, Beijing, China), as previously described by Qian et al.[21]. The gray matter of animals was taken out and minced into small pieces of approximately 1 mm^3 in ice-cold MEM medium, then dissociated by using 2 mg/mL collagenase containing DNase at a final concentration of 10.5 μg/ml on a shaker for 20 min at 37°C. The cells were pelleted by centrifugation(1000 rpm, 10 min, 4°C) and digested once again according to the above protocol. Then 20% dextran(Mr 40,000) was added to the cells for differential centrifugation at 2000 rpm for 10 min. The cells were re-suspended in complete MEM medium and passed through 74-μm stainless steel mesh. Obtained RBMECs were seeded on 1% (w/v) gelatin-coated culture flasks and cultivated in complete medium (MEM, 20% FBS, 0.9 mg/mL glutamate, 10 mmol/L hepes, 100 ng/mL bFGF, 100 μg/mL heparin sulphate, 100 units/mL penicillin, 100 μg/mL streptomycin sulphate and 50 units/mL amphotericin B) at 37°C and 5% CO2, which was refreshed with complete medium 4 h after seeding to eliminate non-endothelial cells. A final concentration of 2 μg/mL of puromycin was added for 7 h to further purify the cultured cells. The purity of RBMECs was examined by their morphological characteristics using a phase-contrast microscope, and immunocytochemistry of a specific marker, factor VIII-associated antigen, with a rabbit anti-factor VIII polyclonal antibody and FITC-conjugated goat anti-rabbit factor VIII secondary antibody by immunofluorescence microscopy (Olympus IX 70-S1Z2, Olympus Optical CO. Ltd., Japan). The P-gp expression in cultured cells was determined by Western blot analyses using a mouse monoclonal antibody raised against amino acids 1040–1280 of P-gp. When the cultures in the flasks reached 80%–90% confluence, the purified RBMECs were passaged by a brief treatment with trypsin (0.25%, w/v) and EDTA (0.02%, w/v) solution and seeded onto 6-well plates at a density of 5 × 10^5 cells/well; after 2–3 days, incubated with the following agents for 2 h under culture conditions (37°C, 5% CO2 and humidified air): vehicle; (−)CLA (1 or 5 μmol/L); (+)CLA (1 or 5 μmol/L); verapamil (200 μmol/L); or individual enantiomer (1 or 5 μmol/L) plus verapamil (200 μmol/L). In the end, Rh123 (5 μmol/L) was added to the whole wells. The cell incubation, solubilisation and Rh123 accumulation were performed according to the same method for Caco-2 cells described above.
Primary cultures of brain microvessel endothelial cells were prepared from Sprague–Dawley rats (10–12 days old; Beijing Vital River Company, Beijing, China), as previously described by Qian et al.[21]. Animals were anesthetized by intraperitoneal injection of 20% ethyl carbamate at dose of 1g/kg[35], and sterilized by immersion in 75% alcohol solution for 2 min. The gray matter of these animals was taken out and minced into small pieces of approximately 1 mm^3 in ice-cold MEM medium, then dissociated by using 2 mg/mL collagenase containing DNase at a final concentration of 10.5 μg/ml on a shaker for 20 min at 37°C. The cells were pelleted by centrifugation(1000 rpm, 10 min, 4°C) and digested once again according to the above protocol. Then 20% dextran(Mr 40,000) was added to the cells for differential centrifugation at 2000 rpm for 10 min. The cells were re-suspended in complete MEM medium and passed through 74-μm stainless steel mesh. […]

P-gp [5] = molecular target: T1, P-gp (Homo sapiens, UniProt P08183); test: Rh123 accumulation in KBv cells; assay type: cell-based; conditions: for Percentage of rhodamine 123 accumulation relative to vehicle treatment: positive = increase; for Effect on P-gp efflux activity when combined with verapamil (in words): higher concentration CLA 10 μmol/L plus verapamil 200 μmol/L
T1 construct: three cells expressing P-gp, Caco-2, KBv and rat brain microvessel endothelial cells (RBMEC); endogenous in cells; host or cells: Caco-2
Experimental: KB or its vinblastine-resistance derivative KBv cells[19] were maintained on 6-well plates (5 × 10^5 cells/well) in […] medium with 10% FBS, 100 units/mL penicillin and 100 μg/mL streptomycin sulphate at 37°C with 95% air and 5% CO2. After reaching 80%–90% confluence, the two cells were treated with the following agents, respectively: vehicle; (−)CLA (5 or 10 μmol/L); (+)CLA (5 or 10 μmol/L). Additionally, the KBv cells were treated with verapamil (200 μmol/L); or individual enantiomer (5 or 10 μmol/L) plus verapamil (200 μmol/L). Rh123 (5 μmol/L) were finally added to these wells. Subsequently, cell incubation, solubilisation and Rh123 accumulation were performed by using the same method for Caco-2 cells.

CYP3A1 = test system: CYP3A1; parameters: method as in PMID 23684935, PMID 12692891; conditions: rat liver; cited from earlier work
[6] = high dose, CLA 5 μmol/L, Rh123 5 μmol/L, 2 h
[7] = low dose, CLA 1 μmol/L, Rh123 5 μmol/L, 2 h
[8] = high dose, CLA 10 μmol/L, Rh123 5 μmol/L
[9] = low dose, CLA 5 μmol/L, Rh123 5 μmol/L

T1 sequence (P08183 whole entry): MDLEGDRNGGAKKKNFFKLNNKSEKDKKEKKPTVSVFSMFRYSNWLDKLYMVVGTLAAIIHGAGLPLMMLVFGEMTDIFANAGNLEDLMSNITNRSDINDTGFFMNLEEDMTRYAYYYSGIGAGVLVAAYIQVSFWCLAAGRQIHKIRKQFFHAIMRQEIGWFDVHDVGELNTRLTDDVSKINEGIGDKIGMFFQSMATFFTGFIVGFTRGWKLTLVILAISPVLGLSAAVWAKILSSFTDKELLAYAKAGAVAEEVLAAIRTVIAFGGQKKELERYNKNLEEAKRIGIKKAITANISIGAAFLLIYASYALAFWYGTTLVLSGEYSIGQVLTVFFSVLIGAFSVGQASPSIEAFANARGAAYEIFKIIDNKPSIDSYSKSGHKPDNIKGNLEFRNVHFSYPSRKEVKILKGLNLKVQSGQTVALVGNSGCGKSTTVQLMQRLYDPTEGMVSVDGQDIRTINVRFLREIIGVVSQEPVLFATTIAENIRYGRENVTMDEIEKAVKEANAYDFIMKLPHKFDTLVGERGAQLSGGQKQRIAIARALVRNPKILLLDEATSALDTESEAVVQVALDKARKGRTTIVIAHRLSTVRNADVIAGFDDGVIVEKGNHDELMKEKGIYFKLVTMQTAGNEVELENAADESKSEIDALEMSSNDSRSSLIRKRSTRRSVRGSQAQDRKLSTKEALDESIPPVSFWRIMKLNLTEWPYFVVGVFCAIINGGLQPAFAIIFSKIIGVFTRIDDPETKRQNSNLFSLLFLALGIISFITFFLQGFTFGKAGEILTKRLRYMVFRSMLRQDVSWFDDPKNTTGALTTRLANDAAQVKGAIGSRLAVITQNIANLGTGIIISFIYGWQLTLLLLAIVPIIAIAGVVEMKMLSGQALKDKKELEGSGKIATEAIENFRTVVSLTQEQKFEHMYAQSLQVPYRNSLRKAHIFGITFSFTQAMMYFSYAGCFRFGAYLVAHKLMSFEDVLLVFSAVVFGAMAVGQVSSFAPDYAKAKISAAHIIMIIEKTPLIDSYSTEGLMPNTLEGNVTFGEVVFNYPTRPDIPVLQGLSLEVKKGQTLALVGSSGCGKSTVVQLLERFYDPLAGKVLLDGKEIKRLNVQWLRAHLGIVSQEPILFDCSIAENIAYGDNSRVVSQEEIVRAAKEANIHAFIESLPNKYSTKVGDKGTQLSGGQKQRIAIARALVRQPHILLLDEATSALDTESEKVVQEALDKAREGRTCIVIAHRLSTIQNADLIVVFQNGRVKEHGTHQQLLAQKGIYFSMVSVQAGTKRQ

Compound | AUC0–12 h [1] [µg·min/mL] | Ratio [(+)/(−)] of cumulative amounts of biliary excretion [2] | Ratio [(+)/(−)] of cumulative amounts of urinary excretion [2] | P-gp expression upregulated relative to vehicle control (P-gp [3]) [%] | Decrease of Rh123 accumulation relative to vehicle control (P-gp [4]; CLA 1 μmol/L, Rh123 5 μmol/L, 2 h) [%] | Increase in Rh123 accumulation relative to verapamil alone (P-gp [4]) [%] | Decrease in Rh123 accumulation relative to verapamil alone (P-gp [4]; co-treatment of verapamil 200 μmol/L with CLA 1 μmol/L) [%] | Percentage of rhodamine 123 accumulation relative to vehicle treatment (P-gp [4]; [6]) | Percentage of rhodamine 123 accumulation relative to vehicle treatment (P-gp [4]; [7]) | Percentage of rhodamine 123 accumulation relative to vehicle treatment (P-gp [5]; [8]) | Effect on P-gp efflux activity when combined with verapamil (in words) (P-gp [5]) | Antagonism of the inhibition of verapamil to P-gp relative to verapamil treatment alone (P-gp [5]; low concentration CLA 5 μmol/L plus verapamil 200 μmol/L) [%] | Percentage of rhodamine 123 accumulation relative to vehicle treatment (P-gp [5]; [9]) | Decrease of Rh123 intracellular accumulation vs. control (P-gp [5]; lower concentration, CLA 5 μmol/L, Rh123 5 μmol/L) [%] | P-gp expression downregulated relative to vehicle control (P-gp [3]) [%] | Rh123 accumulation relative to verapamil alone (in words) (P-gp [4]; verapamil 200 μmol/L plus CLA 1 μmol/L) | Induction of CYP3A1 expression, comparison of enantiomers (CYP3A1)
CN1C(=O)[C@H](O)[C@@H](c2ccccc2)[C@H]1[C@H](O)c1ccccc1 [(+)CLA, 3R,4S,5S,6R-CLA] | 2446 ± 540 | 3.49 | 3.81 | 54.5 | 20.0 | 18.5 | 26.5 | 41.1% and 41.13% | -20.04% | 24.5% and 24.49% | synergistic effect | 35.5 | -25.92% | 25.9 |  |  | 
CN1C(=O)[C@@H](O)[C@H](c2ccccc2)[C@@H]1[C@@H](O)c1ccccc1 [(−)CLA, 3S, 4R, 5R, 6S-clausenamide] | 1256 ± 308 |  |  |  |  | 24.5 |  | 58.46% | 20.0% and 20.04% | 30.0% | synergistic effect |  | 8.2% and 8.16% |  | 15.9 | slightly increased trend | higher expression of CYP3A1 than the (+)-isomer
